# Laboratory results taken from PubChem BioAssay AID2060513 (Molecular Pharmacology Branch, DTP, NCI, 2025).
# Tested on: 299254-011-R-J1-PDC complex spheroids viability
# Experiment: Anticancer human tumor 299254-011-R-J1-PDC patient-derived melanoma cell line growth inhibition [GQUAD]
# Details: for IC50: curve of first compound; for viability, T/C: stronger effect = lower value
# How it was run: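 Tumor cells were grown as complex spheroids with HUVEC endothelial cells and mesenchymal stem cells as stroma. G-quadruplex stabilizers were combined with targeted agents over half-log dilutions from near the clinical Cmax, or from 10 microM.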
# [1] = second compound 0.0316 µM, first compound 0.0316 µM
# [2] = second compound 0.0316 µM, first compound 0.1 µM
# [3] = second compound 0.0316 µM, first compound 0.316 µM
# [4] = second compound 0.0316 µM, first compound 1 µM
# [5] = second compound 0.0316 µM, first compound 3.16 µM
# [6] = second compound 0.0316 µM, first compound 10 µM
# [7] = second compound 0.1 µM, first compound 0.0316 µM
# [8] = second compound 0.1 µM, first compound 0.1 µM
# [9] = second compound 0.1 µM, first compound 0.316 µM
# [10] = second compound 0.1 µM, first compound 1 µM
# [11] = second compound 0.1 µM, first compound 3.16 µM
# [12] = second compound 0.1 µM, first compound 10 µM
# [13] = second compound 0.316 µM, first compound 0.0316 µM
# [14] = second compound 0.316 µM, first compound 0.1 µM
# [15] = second compound 0.316 µM, first compound 0.316 µM
# [16] = second compound 0.316 µM, first compound 1 µM
# [17] = second compound 0.316 µM, first compound 3.16 µM
# [18] = second compound 0.316 µM, first compound 10 µM
# [19] = second compound 1 µM, first compound 0.0316 µM
# [20] = second compound 1 µM, first compound 0.1 µM
# [21] = second compound 1 µM, first compound 0.316 µM
# [22] = second compound 1 µM, first compound 1 µM
# [23] = second compound 1 µM, first compound 3.16 µM
# [24] = second compound 1 µM, first compound 10 µM
# [25] = second compound 3.16 µM, first compound 0.0316 µM
# [26] = second compound 3.16 µM, first compound 0.1 µM
# [27] = second compound 3.16 µM, first compound 0.316 µM
# [28] = second compound 3.16 µM, first compound 1 µM
# [29] = second compound 3.16 µM, first compound 3.16 µM
# [30] = second compound 3.16 µM, first compound 10 µM
# [31] = second compound 10 µM, first compound 0.0316 µM
# [32] = second compound 10 µM, first compound 0.1 µM
# [33] = second compound 10 µM, first compound 0.316 µM
# [34] = second compound 10 µM, first compound 1 µM
# [35] = second compound 10 µM, first compound 3.16 µM
# [36] = second compound 10 µM, first compound 10 µM
# 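Note: spheroids exposed to the agents for seven days before readout.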
# 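Throughout, for viability, T/C: percent viability relative to DMSO vehicle control wells = 100%.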
structure (smiles),measurement,setting,value
Cc1cccc(N(C)C(=O)C2C(O)CCN2c2nc(C)cc(C(F)(F)F)c2C#N)c1 (stereo unspecified) + CN(C)c1ccc(Nc2c3ccc(NC(=O)CCN4CCCC4)cc3nc3cc(NC(=O)CCN4CCCC4)ccc23)cc1,IC50,second compound 0.0316 µM,> 10 µM
same,IC50,second compound 0.1 µM,> 10 µM
same,IC50,second compound 0.316 µM,> 10 µM
same,IC50,second compound 1 µM,> 10 µM
same,IC50,second compound 3.16 µM,> 10 µM
same,IC50,second compound 10 µM,> 10 µM
same,"viability, T/C",[1],118%
same,"viability, T/C",[2],96.8%
same,"viability, T/C",[3],84.9%
same,"viability, T/C",[4],80.5%
same,"viability, T/C",[5],99.2%
same,"viability, T/C",[6],86%
same,"viability, T/C",[7],116%
same,"viability, T/C",[8],84.9%
same,"viability, T/C",[9],89.2%
same,"viability, T/C",[10],83.4%
same,"viability, T/C",[11],90.4%
same,"viability, T/C",[12],81.5%
same,"viability, T/C",[13],103%
same,"viability, T/C",[14],100%
same,"viability, T/C",[15],90.5%
same,"viability, T/C",[16],103%
same,"viability, T/C",[17],95.6%
same,"viability, T/C",[18],103%
same,"viability, T/C",[19],94.9%
same,"viability, T/C",[20],105%
same,"viability, T/C",[21],99.5%
same,"viability, T/C",[22],100%
same,"viability, T/C",[23],105%
same,"viability, T/C",[24],81.3%
same,"viability, T/C",[25],108%
same,"viability, T/C",[26],99.6%
same,"viability, T/C",[27],98.6%
same,"viability, T/C",[28],108%
same,"viability, T/C",[29],84.1%
same,"viability, T/C",[30],80.4%
same,"viability, T/C",[31],102%
same,"viability, T/C",[32],79.4%
same,"viability, T/C",[33],98.7%
same,"viability, T/C",[34],110%
same,"viability, T/C",[35],77.4%
same,"viability, T/C",[36],67.6%
C#Cc1c(F)ccc2cc(O)cc(-c3ncc4c(N5CC6CCC(C5)N6)nc(OCC56CCCN5CC(F)C6)nc4c3F)c12 (stereo unspecified) + CN(C)c1ccc(Nc2c3ccc(NC(=O)CCN4CCCC4)cc3nc3cc(NC(=O)CCN4CCCC4)ccc23)cc1,IC50,second compound 0.0316 µM,> 10 µM
same,IC50,second compound 0.1 µM,> 10 µM
same,IC50,second compound 0.316 µM,> 10 µM
same,IC50,second compound 1 µM,> 10 µM
same,IC50,second compound 3.16 µM,> 10 µM
same,IC50,second compound 10 µM,> 10 µM
same,"viability, T/C",[1],85.8%
same,"viability, T/C",[2],92.7%
same,"viability, T/C",[3],101%
same,"viability, T/C",[4],105%
same,"viability, T/C",[5],104%
same,"viability, T/C",[6],78.9%
same,"viability, T/C",[7],114%
same,"viability, T/C",[8],96.4%
same,"viability, T/C",[9],94.8%
same,"viability, T/C",[10],101%
same,"viability, T/C",[11],85.2%
same,"viability, T/C",[12],66%
same,"viability, T/C",[13],113%
same,"viability, T/C",[14],114%
same,"viability, T/C",[15],82.2%
same,"viability, T/C",[16],79.3%
same,"viability, T/C",[17],93.5%
same,"viability, T/C",[18],77%
same,"viability, T/C",[19],85.4%
same,"viability, T/C",[20],105%
same,"viability, T/C",[21],76.7%
same,"viability, T/C",[22],99.7%
same,"viability, T/C",[23],89.2%
same,"viability, T/C",[24],83.9%
same,"viability, T/C",[25],110%
same,"viability, T/C",[26],123%
same,"viability, T/C",[27],97.3%
same,"viability, T/C",[28],112%
same,"viability, T/C",[29],73.6%
same,"viability, T/C",[30],69.9%
same,"viability, T/C",[31],100%
same,"viability, T/C",[32],94.8%
same,"viability, T/C",[33],101%
same,"viability, T/C",[34],87.8%
same,"viability, T/C",[35],85.4%
same,"viability, T/C",[36],72.5%
CC[C@@]1(O)C(=O)OCc2c1cc1n(c2=O)Cc2cc3c(CN(C)C)c(O)ccc3nc2-1 + Cc1cnc(CNC(=O)c2c(=O)c3ccc(N4CCCN(C)CC4)nc3n3c2sc2ccccc23)cn1,IC50,second compound 0.0316 µM,> 0.316 µM
same,IC50,second compound 0.1 µM,> 0.316 µM
same,IC50,second compound 0.316 µM,> 0.316 µM
same,IC50,second compound 1 µM,> 0.316 µM
same,IC50,second compound 3.16 µM,> 0.316 µM
same,IC50,second compound 10 µM,< 0.000999 µM
same,"viability, T/C","second compound 0.0316 µM, first compound 0.000999 µM",127%
same,"viability, T/C","second compound 0.0316 µM, first compound 0.00316 µM",86.3%
same,"viability, T/C","second compound 0.0316 µM, first compound 0.00999 µM",96.4%
same,"viability, T/C",[1],86.7%
same,"viability, T/C","second compound 0.0316 µM, first compound 0.0999 µM",98.5%
same,"viability, T/C",[3],81.3%
same,"viability, T/C","second compound 0.1 µM, first compound 0.000999 µM",87.5%
same,"viability, T/C","second compound 0.1 µM, first compound 0.00316 µM",116%
same,"viability, T/C","second compound 0.1 µM, first compound 0.00999 µM",81.8%
same,"viability, T/C",[7],101%
same,"viability, T/C","second compound 0.1 µM, first compound 0.0999 µM",88.2%
same,"viability, T/C",[9],73.8%
same,"viability, T/C","second compound 0.316 µM, first compound 0.000999 µM",106%
same,"viability, T/C","second compound 0.316 µM, first compound 0.00316 µM",92.8%
same,"viability, T/C","second compound 0.316 µM, first compound 0.00999 µM",103%
same,"viability, T/C",[13],84.9%
same,"viability, T/C","second compound 0.316 µM, first compound 0.0999 µM",92.4%
same,"viability, T/C",[15],82.2%
same,"viability, T/C","second compound 1 µM, first compound 0.000999 µM",76.2%
same,"viability, T/C","second compound 1 µM, first compound 0.00316 µM",79.8%
same,"viability, T/C","second compound 1 µM, first compound 0.00999 µM",89.5%
same,"viability, T/C",[19],79.6%
same,"viability, T/C","second compound 1 µM, first compound 0.0999 µM",74.3%
same,"viability, T/C",[21],76.6%
same,"viability, T/C","second compound 3.16 µM, first compound 0.000999 µM",80.8%
same,"viability, T/C","second compound 3.16 µM, first compound 0.00316 µM",70.7%
same,"viability, T/C","second compound 3.16 µM, first compound 0.00999 µM",89.9%
same,"viability, T/C",[25],94.5%
same,"viability, T/C","second compound 3.16 µM, first compound 0.0999 µM",77.7%
same,"viability, T/C",[27],53.6%
same,"viability, T/C","second compound 10 µM, first compound 0.000999 µM",0.41%
same,"viability, T/C","second compound 10 µM, first compound 0.00316 µM",16.5%
same,"viability, T/C","second compound 10 µM, first compound 0.00999 µM",49.5%
same,"viability, T/C",[31],36.7%
same,"viability, T/C","second compound 10 µM, first compound 0.0999 µM",0.46%
same,"viability, T/C",[33],0.37%
